Test results reported in article PMC5732813, “Novel piplartine-containing ruthenium complexes: synthesis, cell growth inhibition, apoptosis induction and ROS production on HCT116 cells” (Oncotarget, 2017).
Values joined by “and” are separate entries in the source; they are usually repeats but may differ in a detail not shown here. Equal values may be shown once.

How the values were obtained:
[1] = system: cancer multicellular spheroids formed from HCT116 cells; experiment: 3D multicellular spheroids culture, alamar blue assay; format: cell-based, human
Procedure: Cell viability was quantified using the alamar blue assay, according to Ahmed et al.. Cells were inserted in 96-well plates for all experiments (7 x 10^4 cells/mL for adherent cells or 3 x 10^5 cells/mL for suspended cells in 100 μL of medium). […] Negative controls received the vehicle that was used for diluting the compounds tested.
HCT116 cells were cultivated in 3D multicellular spheroids. Briefly, 100 μL of a solution of cells (0.5 x 10^6 cells/mL) were inserted in 96-well plate with a cell-repellent surface (Greiner Bio-One, Kremsmünster, Austria) and cultured in RPMI 1640 medium with 10% fetal bovine serum, 2 mM glutamine, 3% matrigel (BD Biosciences, San Jose, CA, EUA) and 50 μg/mL gentamycin at 37°C with 5% CO2. […] Negative control received the vehicle that was used for diluting the compounds tested. In the end of the experiment, morphological changes were examined by light microscopy (Olympus BX41, Tokyo, Japan) using Image-Pro software (Media Cybernetics, Inc. Silver Spring, USA) and the cell viability was determined by alamar blue assay as described above.

HCT116 cells [2] = experiment: Gene expression analysis by qPCR array (TaqMan Array Human Molecular Mechanisms of Cancer); format: cell-based; conditions: HCT116, 12 h; DOX 1 μM, PL 10 μM, 1 2.5 μM, 2 5 μM; negative control RQ = 1.0
Procedure: HCT116 cells were plated in bottles tissue culture (7x10^4 cells/mL). After 12h of incubation with the complexes, total RNA was isolated from the cells using the RNeasy Plus mini kit (Qiagen, Hilden, Germany) according to the manufacturer’s instructions. The RNA was evaluated by fluorimetry (QuBit™, Life Technologies, Camarillo, CA, EUA). RNA reverse transcription was performed using Superscript VILO™ (Invitrogen Corporation, Waltham, MA, USA). A 96-well plate TaqMan® Array Human Molecular Mechanisms of Cancer (ID 4418806, Applied Biosystems™, Foster City, CA, EUA) was used for the gene expression study by qPCR. The reactions were conducted in the ABI ViiA7 (Applied Biosystems™, Foster City, CA, EUA). The cycle conditions comprised 2 min at 50 °C, 20 s at 95 °C, then 40 cycles of 3 s at 95 °C and 30 s at 60 °C. […] The GAPDH, 18S and HPRT1 genes were used for normalization. All experiments were performed in DNase/RNase free conditions.

HCT116 cells [3] = experiment: Internucleosomal DNA fragmentation and cell cycle distribution (DNA content, flow cytometry); format: cell-based, human
Procedure: Cells were harvested in a permeabilization solution containing 0.1% triton X-100 (Sigma Chemical Co. St Louis, MO, USA), 2 μg/mL propidium iodide (Sigma Chemical Co. St Louis, MO, USA), 0.1% sodium citrate and 100 μg/mL RNAse (Sigma Chemical Co. St Louis, MO, USA) and incubated in the dark for 15 min at room temperature.

Q: What does the source list for “[Ru(piplartine)(dppb)(bipy)](PF6)2 [Complex 2]”?
A: IC50 ([1]; 3D spheroids of HCT116, 72 h treatment, alamar blue, read-out: IC50): 8.3 µM; more potent than metal-free piplartine ([1]; 3D spheroids of HCT116, IC50 72 h): ~2 fold; RQ ABL1 (HCT116 cells [2]): 0.863; RQ AKT1 (HCT116 cells [2]): 0.642; RQ AKT2 (HCT116 cells [2]): 0.592; RQ APC (HCT116 cells [2]): 0.576; RQ BAX (HCT116 cells [2]): 0.739; RQ BCAR1 (HCT116 cells [2]): 0.596; RQ BCL2 (HCT116 cells [2]): 0.8 and 0.748; RQ BCL2L1 (HCT116 cells [2]): 0.739; RQ BCL2L11 (HCT116 cells [2]): 0.904; RQ BID (HCT116 cells [2]): 0.671; RQ BRAF (HCT116 cells [2]): 0.781; RQ CASP8 (HCT116 cells [2]): 0.930; RQ CASP9 (HCT116 cells [2]): 0.828; RQ CCND1 (HCT116 cells [2]): 0.5 and 0.461; RQ CCND3 (HCT116 cells [2]): 0.723; RQ CCNE1 (HCT116 cells [2]): 0.893; RQ CDC42 (HCT116 cells [2]): 1.411; RQ CDH1 (HCT116 cells [2]): 1.1 and 1.098; RQ CDK2 (HCT116 cells [2]): 0.693; RQ CDK4 (HCT116 cells [2]): 0.898; RQ CDKN1A (HCT116 cells [2]): 0.996; RQ CDKN1B (HCT116 cells [2]): 0.783; RQ CDKN2A (HCT116 cells [2]): 1.2 and 1.153; RQ CRK (HCT116 cells [2]): 0.758; RQ CTNNB1 (HCT116 cells [2]): 0.877; RQ CYCS (HCT116 cells [2]): 1.0 and 1.043; RQ E2F1 (HCT116 cells [2]): 0.736; RQ EGFR (HCT116 cells [2]): 11,276.3 and 11,276.298; RQ ELK1 (HCT116 cells [2]): 0.628; RQ ERBB2 (HCT116 cells [2]): 1.006; RQ FADD (HCT116 cells [2]): 74.1 and 74.142; RQ FAS (HCT116 cells [2]): 1.037; RQ FGF2 (HCT116 cells [2]): 1.003; RQ FYN (HCT116 cells [2]): 1.169; RQ FZD1 (HCT116 cells [2]): 0.9 and 0.860; RQ GRB2 (HCT116 cells [2]): 0.693; RQ GSK3B (HCT116 cells [2]): 0.738; RQ GUSB (HCT116 cells [2]): 2.9; RQ HRAS (HCT116 cells [2]): 0.561; RQ IGF1R (HCT116 cells [2]): 0.7 and 0.677; RQ ITGA2B (HCT116 cells [2]): 0.1 and 0.135; RQ ITGAV (HCT116 cells [2]): 1,149.0 and 1,149.015; RQ ITGB1 (HCT116 cells [2]): 0.579; RQ ITGB3 (HCT116 cells [2]): 1.243; RQ JUN (HCT116 cells [2]): 2.3 and 2.306; RQ KDR (HCT116 cells [2]): 1.4 and 1.408; RQ KRAS (HCT116 cells [2]): 0.979; RQ MAP2K1 (HCT116 cells [2]): 2,107.2 and 2,107.239; RQ MAP3K5 (HCT116 cells [2]): 4.3 and 4.314; RQ MAPK1 (HCT116 cells [2]): 1.062; RQ MAPK3 (HCT116 cells [2]): 1.9 and 1.853; RQ MAPK8 (HCT116 cells [2]): 0.623; RQ MAPK14 (HCT116 cells [2]): 1.145; RQ MAX (HCT116 cells [2]): 0.9 and 0.912; RQ MDM2 (HCT116 cells [2]): 1.272; RQ MYC (HCT116 cells [2]): 0.796; RQ NFKB1 (HCT116 cells [2]): 0.699; RQ NFKB2 (HCT116 cells [2]): 1.536; RQ NFKBIA (HCT116 cells [2]): 0.9 and 0.894; RQ NRAS (HCT116 cells [2]): 0.923; RQ PIK3CA (HCT116 cells [2]): 0.565; RQ PIK3R1 (HCT116 cells [2]): 1.3 and 1.299; RQ PTEN (HCT116 cells [2]): 0.8 and 0.776; RQ PTK2 (HCT116 cells [2]): 2.4 and 2.357; RQ PTK2B (HCT116 cells [2]): 1.0 and 1.024; RQ RAC1 (HCT116 cells [2]): 2.7 and 2.676; RQ RAF1 (HCT116 cells [2]): 0.9 and 0.909; RQ RB1 (HCT116 cells [2]): 0.821; RQ RELA (HCT116 cells [2]): 0.845; RQ RHOA (HCT116 cells [2]): 1.017; RQ SMAD4 (HCT116 cells [2]): 2.1 and 2.050; RQ SOS1 (HCT116 cells [2]): 0.2 and 0.188; RQ SPP1 (HCT116 cells [2]): 10.1 and 10.094; RQ SRC (HCT116 cells [2]): 0.801; RQ TCF3 (HCT116 cells [2]): 0.608; RQ TGFB1 (HCT116 cells [2]): 0.868; RQ TGFBR1 (HCT116 cells [2]): 0.781; RQ TGFBR2 (HCT116 cells [2]): 1.1 and 1.085; RQ TP53 (HCT116 cells [2]): 1.5 and 1.466; RQ VEGFA (HCT116 cells [2]): 1.321; DNA content (%) S (HCT116 cells [3]): 18.7 ± 1.8% and 15.6 ± 1.8% and 21.2 ± 2.6% and 18.0 ± 1.3%
